Legend:
Type in all cases: in vivo
[1] = tested on: greenhouse red spider mite (Tetranychus urticae); assay: Tetranychus test; OP-resistant (TETRUR spray treatment); conditions: 500 g/ha, spray, after 6 days
Description: Tetranychus Test; OP-Resistant (TETRUR Spray Treatment) Solvents: 78.0 parts by weight of acetone • • 1.5 parts by weight of dimethylformamide Emulsifier: 0.5 part by weight of alkylaryl polyglycol ether
(§1) To produce a suitable preparation of active compound, 1 part by weight of active compound is mixed with the stated amounts of solvents and emulsifier, and the concentrate is diluted with emulsifier-containing water to the desired concentration.
Discs of bean leaves (Phaseolus vulgaris) infested by all stages of the greenhouse red spider mite (Tetranychus urticae) are sprayed with an active compound preparation of the desired concentration.
After 6 days, the activity in % is determined. 100% means that all spider mites have been killed; 0% means that none of the spider mites have been killed.

[2] = tested on: caterpillars of the army worm (Spodoptera frugiperda); assay: Spodoptera frugiperda test (SPODFR spray treatment); conditions: 500 g/ha, spray, after 7 days
Description: Spodoptera frugiperda Test (SPODFR Spray Treatment) Solvents: 78.0 parts by weight of acetone • • 1.5 parts by weight of dimethylformamide Emulsifier: 0.5 part by weight of alkylaryl polyglycol ether
as §1
Discs of maize leaves (Zea mays) are sprayed with an active compound preparation of the desired concentration and, after drying, populated with caterpillars of the army worm (Spodoptera frugiperda) besetzt.
After 7 days, the activity in % is determined. 100% means that all caterpillars have been killed; 0% means that none of the caterpillars have been killed.

[3] = tested on: larvae of the mustard beetle (Phaedon cochleariae); assay: Phaedon test (PHAECO spray treatment); conditions: 500 g/ha, spray, after 7 days
Description: Phaedon Test ([…] Spray Treatment) Solvents: 78.0 parts by weight of acetone • • 1.5 parts by weight of dimethylformamide Emulsifier: 0.5 part by weight of alkylaryl polyglycol ether To produce a suitable preparation of active compound, 1 part by weight of active compound is mixed with the stated amounts of solvents and emulsifiers, and the concentrate is diluted with emulsifier-containing water to the desired concentration. Discs of Chinese cabbage leaves (Brassica pekinensis) are sprayed with an active compound preparation of the desired concentration and, after drying, populated with larvae of the mustard beetle (Phaedon cochleariae).

[4] = tested on: green peach aphid (Myzus persicae); assay: Myzus test (MYZUPE spray treatment); conditions: 500 g/ha, spray, after 6 days
Description: Myzus Test (MYZUPE Spray Treatment) Solvents: 78 parts by weight of acetone • • 1.5 parts by weight of dimethylformamide Emulsifier: 0.5 part by weight of alkylaryl polyglycol ether
as §1
Discs of Chinese cabbage leaves (Brassica pekinensis) which are infested by all stages of the green peach aphid (Myzus persicae) are sprayed with an active compound preparation of the desired concentration.
After 6 days, the activity in % is determined. 100% means that all aphids have been killed; 0% means that none of the aphids have been killed.

[5] = tested on: Anopheles gambiae (homocygus kdr); assay: Anopheles test (ANPHGB surface treatment); conditions: exposition 30 minutes; for knock-down activity: 100 mg/m^2, two hours after contact; for activity (mortality in %): 100 mg/m^2, 24 hours after contact
Description: Anopheles Test (ANPHGB Surface Treatment) Solvent: Acetone
To produce a suitable preparation of active compound, the active compound is dissolved in acetone (2 mg/ml). The active compound preparation is pipetted onto a glazed tile and, after drying, adult mosquitoes of the species Anopheles gambiae (homocygus kdr) are placed onto the treated tile. The exposition time is 30 minutes.
Two hours after contact to the treated surface, the knock-down proportion of the test animals in % is determined.
24 hours after contact to the treated surface, the mortality in % is determined. Here, 100% means that all mosquitoes have been killed; 0% means that none of the mosquitoes has been killed.

Row | SMILES | activity (spider mites killed) [1] [%] | activity (caterpillars killed) [2] [%] | activity (beetle larvae killed) [3] [%] | activity (aphids killed) [4] [%] | further results
1 | Cc1cccc(N=C2C(=CSc3ccccc3)C(C)c3ccccc32)c1 (mixture of isomers) [Example 1-12] | 100 | 100 | 100 | – | –
2 | CC1C(=CSc2ccccc2)C(=Nc2ccccc2)c2ccccc21 (mixture of isomers) [Example 1-13] | 100 | 100 | 100 | 100 | –
3 | C(Sc1ccccc1)=C1C(=Nc2ccccc2)c2ccccc2C1c1ccccc1 (mixture of isomers) [Example 1-19] | 100 | 100 | 100 | 100 | –
4 | Cc1ccc(N=C2C(=CSc3ccc(F)cc3)C(C)c3cc(Cl)ccc32)cc1 (mixture of isomers) [Example 1-50] | – | – | – | – | knock-down activity [5]: 85%
5 | Cc1ccc2c(c1)C(C)C(=CSc1ccc(F)cc1)C2=Nc1ccc(C)c(C)c1 (mixture of isomers) [Example 1-71] | 100 | 100 | 100 | 90 | knock-down activity [5]: 100%
6 | Cc1cc(C)cc(N=C2C(=CSc3ccc(F)cc3)C(C)c3cc(C)ccc32)c1 (mixture of isomers) [Example 1-72] | – | 100 | – | – | –
7 | Cc1ccc(N=C2C(=CSc3ccc(F)cc3)CCc3cc(Cl)sc32)cc1 (mixture of isomers) [Example 1-91] | 100 | 100 | 100 | 90 | –
8 | CCOC1=CC(=CSc2ccccc2)C(=Nc2ccc(C)cc2)CC1 (mixture of isomers) [Example 1-97] | 100 | – | – | – | –
9 | Cc1ccc(N=C2CCC(OC(C)C)=CC2=CSc2ccc(F)cc2)cc1 (mixture of isomers) [Example 1-99] | 100 | – | – | – | –
10 | Cc1ccc(N=C2c3ccccc3C(c3ccccc3)C2C(Sc2ccccc2)Sc2ccccc2)cc1 (mixture of isomers) [Example 2-9] | 100 | 100 | 100 | 100 | –
11 | c1ccc(N=C2c3ccccc3C(c3ccccc3)C2C(Sc2ccccc2)Sc2ccccc2)cc1 (mixture of isomers) [Example 2-10] | 100 | 100 | – | 100 | –
12 | Cc1ccc(N=C2C(=CSc3ccc(F)cc3)COc3cc(-c4ccccc4)ccc32)cc1 [Example 1-24] | – | – | – | 90 | –
13 | Cc1ccc(N=C2C(=CSc3ccc(F)cc3)C(C)Oc3ccc(F)cc32)cc1 (stereo not shown) [Example 1-25] | – | 100 | – | – | –
14 | Cc1ccc(N=C2C(=CSc3ccc(F)cc3)CCc3c(C)cc(C)cc32)cc1 [Example 1-30] | 80 | 100 | – | – | –
15 | CC(C)c1ccc(N=C2C(=CSc3ccc(F)cc3)CCc3ccccc32)cc1 [Example 1-42] | 80 | – | – | – | –
16 | Cc1ccc(N=C2C(Br)=CC(C)(C)CC2=CSc2ccc(F)cc2)cc1 [Example 1-49] | – | 100 | – | 90 | –
17 | COc1ccc2c(c1C)OCC(=CSc1ccc(F)cc1)C2=Nc1ccc(C)cc1 [Example 1-52] | – | – | – | – | activity (mortality in %) [5]: 85%

Row | SMILES | activity (spider mites killed) [1] [%] | activity (caterpillars killed) [2] [%] | activity (beetle larvae killed) [3] [%] | activity (aphids killed) [4] [%] | further results
18 | Cc1ccc(N=C2C(=CSc3ccccc3)CCC/C2=C\Sc2ccccc2)cc1 [Example 1-60, N-{2,6-Bis[(phenylsulphanyl)methylene]cyclohexylidene}-4-methylaniline] | – | – | – | – | pest or weed control at 500 g/ha ([2]; Spodoptera frugiperda, 168 h, read-out: activity (caterpillars killed)): 100%; pest or weed control at 500 g/ha ([3]; Phaedon cochleariae, 168 h, read-out: activity (beetle larvae killed)): 100%
19 | Cc1ccc(N=C2C=CC(C)(C)CC2=CSc2ccc(F)cc2)cc1C [Example 1-64] | 80 | 100 | – | 80 | knock-down activity [5]: 100%
20 | Cc1ccc(N=C2C(=CSc3ccc(F)cc3)CCc3sc(Cl)cc32)cc1 [Example 1-66] | – | 100 | 100 | – | –
21 | Cc1cc(C)cc(N=C2C(=CSc3ccc(F)cc3)CCc3ccccc32)c1 [Example 1-67] | – | 100 | 100 | 80 | –
22 | Cc1ccc(N=C2C(=CSc3ccc(F)cc3)CCc3ccccc32)cc1C#N [Example 1-68] | 100 | 100 | 100 | – | –
23 | COc1ccc(SC=C2CCc3ccccc3C2=Nc2ccc(C)cc2)cc1 [Example 1-73] | 80 | – | – | – | –
24 | Cc1ccc(N=C2C(=CSc3ccc(F)cc3)COc3cc(C(C)(C)C)ccc32)cc1 [Example 1-75] | – | 100 | – | – | –
25 | Cc1ccc(N=C2C(=CSc3ccc(F)cc3)CCc3cc(C)cc(C)c32)cc1 [Example 1-77] | – | – | – | – | activity (mortality in %) [5]: 80%
26 | Cc1ccc(N=C2C(=CSc3cccc(F)c3)CCc3ccccc32)cc1 [Example 1-78] | 100 | 100 | 100 | 100 | –
27 | Cc1ccc(N=C2C(=CSC3CCCC3)CCc3ccccc32)cc1 [Example 1-87] | 100 | – | 100 | 100 | knock-down activity [5]: 80%
28 | Cc1ccc(N=C2C(=CSc3ccc(F)cc3)CCc3ccccc32)cc1F [Example 1-89] | 100 | 100 | 100 | – | knock-down activity [5]: 100%
29 | Cc1ccc(N=C2C(=CSc3ccc(F)cc3)CCc3c2ccc2ccccc32)cc1F [Example 1-92] | 100 | 100 | 100 | – | –
30 | CC1=CC(C)(C)CC(=CSc2ccc(F)cc2)C1=Nc1ccc(C)cc1 [Example 1-93] | 90 | – | – | – | –
31 | COc1ccc(N=C2c3ccccc3CCC2C(Sc2ccccc2)Sc2ccccc2)cc1 (stereo not shown) [Example 2-3] | – | – | – | – | activity (mortality in %) [5]: 95%
32 | Cc1ccc(N=C2c3ccc(F)cc3CCC2C(Sc2ccc(F)cc2)Sc2ccc(F)cc2)cc1 (stereo not shown) [Example 2-6] | – | – | – | – | activity (mortality in %) [5]: 95%
33 | Cc1ccc(N=C2c3cc(F)ccc3CCC2C(Sc2ccc(F)cc2)Sc2ccc(F)cc2)cc1 (stereo not shown) [Example 2-8] | 90 | 100 | – | – | –

Reference: US9055743B2, “Alpha, beta-unsaturated imines” (BAYER INTELLECTUAL PROPERTY GMBH, priority 2010, dated 2015)
